Experimental data from patent US20260015599A1, “TARGETING THE STING1 GENE BY CRISPR ACTIVATION” (AARHUS UNIVERSITET, priority 2022, published 2026).
Where two headings read alike, the source gives them in different places.

Assays:
[1] = tested on: cGAS-STING signalling pathway; assay: Stimulation of human sarcoma cell lines with cGAS, STING and RIG-I agonists, cytokine secretion; format: cell-based
Description: For stimulation in vitro, 30,000 or 60,000 cells were seeded per well in a 24-well plate one day prior to stimulation. Cells were stimulated by transfection using Lipofectamine 2000 transfection reagent (Invitrogen, Cat#: 11668019) combined with the following agents: 2 μg/mL HT-DNA (Sigma-Aldrich, Cat#: D6898), 8 μg/mL 2′3′-cGAMP (Invivogen, Cat#: tlrl-nacga23-5), and 40 ng/ml Poly(I:C)-LMW (Invivogen, Cat#: tlrl-picw). An untreated control and a lipofectamine 2000 control were included. All samples were run in biological duplicates or triplicates. […]
Supernatants from cells stimulated with HT-DNA and Poly(I:C) were analyzed for Interferonβ (IFNβ), CXCL10 and IL-6 using Meso Scale Discovery multiplex Enzyme-linked Immunosorbent assay.
Supernatants from cells stimulated with 2′3′-cGAMP were analyzed for CXCL10 and IL-6 using sandwich ELISA (RnD Systems, Cat#: DY299 and Cat#: DY206). CCL5 content in supernatants from cells stimulated with HT-DNA and Poly(I:C) were analyzed using sandwich ELISA (RnD Systems, Cat#: DY278). […]
Functional type I IFN in supernatants from cells stimulated with 2′3′-cGAMP was quantified using a type I interferon reporter cell assay (HEK-Blue IFN-α/β) (Invivogen, Cat#: hkb-ifnab) according to manufacturer's guidelines. […] The concentration of type I IFN was determined from a standard curve of IFN-a (PBL Assay Science, Cat#: 11100-1). […]

SW872 = assay: Doxorubicin IC50 viability determination (CellTiter 96 AQueous One Solution Cell Proliferation Assay); format: cell-based; conditions: Homo sapiens, SW872, 48 h, 48 hrs of treatment, read-out: IC50 viability concentration
Description: Prior to analysing the immunological reponse to doxorubicin treatment (Sigma-Aldrich, Cat#: D1515-10 MG), and IC50 viability concentration was determined for both wt cells and electroporated cells (mock and STING+). A two-fold dilution of doxorubicin including 10 different dilutions ranging from 16 μM to 0.03125 μM was added to a cell culture and viability was determined using CellTiter 96 AQueous One Solution Cell Proliferation Assay (Promega, Cat#: G3580) after 48 hrs of treatment.
(§1) Wt, mock and STING+ cells were treated with IC50 values of doxorubicin in biological triplicates (IC50 for wt: 0.5 μM and IC50 for mock and STING+: 0.3 μM) and left for 48 hrs before harvest.

STING = assay: Cytokine gene expression (qPCR) in STING-reactivated SW872 after doxorubicin treatment; format: cell-based, human; conditions: SW872 after CRISPRa targeting STING (sgRNA #4 + dCas9-VPR mRNA), doxorubicin at IC50, 48 hrs
Description: For each sample 500,000 cells were resuspended in PBS, spun down at 300 xG for 5 minutes at room temperature (RT) and resuspended in 17 μL opti-MEM (Gibco, Cat#: 31985070). 1.9 μL of dCas9-VPR mRNA (Horizon Discovery, Cat#: CAS12211) and 1 μg of sgRNA was added. The cell suspension was added to an electroporation strip and electroporated on a Lonza 4D nucleofector using pulse code CM138. Afterwards, the electroporation strip containing the cells was left for 3 minutes on the bench top to allow cells to reform. The samples were diluted in preheated DMEM complete and 60,000 wt cells and 120,000 mock and STING+ cells were seeded in a 12-well plate one day prior to doxorubicin treatment to allow cells to adhere.
as §1
RNA from cells was purified using NucleoSpin RNA for the isolation of total RNA (Macherey-Nagel, Cat#: 740984.250M) according to manufacturer's guidelines. cDNA was synthesized using iScript cDNA Synthesis Kit (Bio-Rad, Cat#: 1708891) according to manufacturer's guidelines using 400ng of RNA. Real-time PCR was carried out using 1 μL of 10 ng/μL cDNA in a total volume of 10 μL using KAPA SYBR FAST (Roche, Cat#: KK4611) and the following targets and primers: […]
Samples were run in biological triplicates and technical duplicates on a 384 well plate (Hounisen, Cat#: 72.1985.202). The analysis was performed using the LightCycler 480 software version LCS480 1.5.1.62(Roche).
The cancer cell line SW872 was electroporated with dCas9-VPR mRNA and either nothing (mock) or sgRNA #4 and after additional 24 hrs each cell condition was exposed to the anthracycline chemotherapy drug doxorubicin. Doxorubicin's mode-of-action is to increase DNA damage leakage and this has shown to induce a STING-dependent immune response in conjunction to the cellular toxicity is has on cancer cells.
Supernatants were collected 48 hrs after doxorubicin treatment and immune activation was assessed by qPCR (FIG. 8A-E).

human STING gene = assay: CRISPR activation of STING in SW872, STING expression by immunoblotting and qPCR; format: cell-based; conditions: SW872, electroporated with dCas9-VPR mRNA, 48 hours
Text: To upregulate STING, CRISPR activation technique was used. Synthetic guideRNAs (sgRNAs) are used to guide a deactivated Cas9 (dCas9) to a site in the vicinity of the transcriptional start site of STING. Attached to the dCas9 are three transcription activators (VP64, Rta, p65; collectively termed VPR), which can activate transcription of the target gene. The dCas9-VPR is delivered as mRNA and is translated by the translation apparatus in the host cell.
To test the ability of the individual sgRNAs to upregulate STING expression, each sgRNA was tested individually as well as all 5 sgRNAs together in the human sarcoma cell line SW872 or HT1080. The sequence of the DNA binding part of the 5 sgRNAs were the following:
sgRNAs were purchased from Synthego and comprise 2′-O-Methyl at the three first and last bases as well as 3′ phosphorothioate bonds between the first three and last two bases.
dCas9-VPR mRNA (SEQ ID NO: 29 as produced by in vitro transcription) (or purchased from Horizon Discovery, Cat#: CAS12211) comprises full substitution of uridine with pseudouridine and cotranscriptional capping with CleanCap AG in a 1:4 ratio between GTP and CleanCap.
For each sample 500,000 cells were resuspended in PBS, spun down at 300 xg for 5 minutes at room temperature (RT) and resuspended in 17 μL opti-MEM (Gibco, Cat#: 31985070). 1.9 μL of dCas9-VPR mRNA (Horizon Discovery, Cat#: CAS12211) (SEQ ID NO: 29) and 1 μg of sgRNA (1 μg of each sgRNA in the sample with all 5 sgRNAs) were added. The cell suspensions were added to an electroporation strip and electroporated on a Lonza 4D nucleofector using pulse code CM138. Afterwards, the electroporation strip containing the cells were left for 3 minutes on the bench top to allow cells to reform. The samples were diluted in preheated DMEM complete medium and cells were seeded at 50-100.000 cells per well in a 24-well plate and left for various days before harvest. […]

For `Nc1nc2c(ncn2[C@@H]2O[C@@H]3COP(=O)(O)O[C@H]4[C@@H](O)[C@H](n5cnc6c(N)ncnc65)O[C@@H]4COP(=O)(O)O[C@@H]2[C@@H]3O)c(=O)[nH]1` [2′3′-cGAMP, 2′,3′-cyclic GMP-AMP], the “cell responsiveness (secretion levels of IFNb, CXCL10, IL6 or CCL5)” value ([1]; SW872, 20-24 hours of activation) was “not responding”.
In the case of `COc1cccc2c1C(=O)c1c(O)c3c(c(O)c1C2=O)C[C@@](O)(C(=O)CO)C[C@@H]3O[C@H]1C[C@H](N)[C@H](O)[C@H](C)O1` [doxorubicin], the IC50 (SW872; mock and STING+ (electroporated) SW872 cells) is reported as 300 nM, the IC50 (SW872; wt SW872 cells) is reported as 500 nM and the “gene expression of CCL5” value (STING) is reported as “increased”. The “gene expression of CXCL10” value (STING) was “increased” and the “gene expression of IFNb” value (STING) was “increased”.
With Poly(I:C) the “cell responsiveness (secretion levels of IFNb, CXCL10, IL6 or CCL5)” value ([1]; all four cell lines (HT-1080, SW872, SW982, SK-LMS1), 20-24 hours of activation) was “responded”.
With “sgRNA #4: sgRNA targeting human STING gene, DNA binding part CAGAAACCGGCAGGCUCUCU (listed as RNA, chemistry not fully specified)” the “STING expression (immunoblotting, qPCR)” value (human STING gene) was “equally or better than the combination of all five sgRNAs”, the “STING expression (immunoblotting, qPCR)” value (human STING gene; listed as SEQ ID NO: 4) was “highest activity” and the “STING expression (immunoblotting, qPCR)” value (human STING gene; listed as sgRNA#4) was “highest expression level”.
